Data set [1] concerns Mus musculus. Briefly: Antiulcer activity in indomethacin-induced Balb/c mouse model of gastric ulcer assessed as inhibition of ulceration at 50 mg/kg, po pre-administered with compound for 30 mins followed by indomethacin administration and measured after 4 hrs relative to control. The data set is classed as functional. The note with it: time 4.5 hrs.
Data set [2] relates to Mus musculus. Briefly: Antiulcer activity in indomethacin-induced Balb/c mouse model of gastric ulcer assessed as mean ulcer index at 50 mg/kg, po pre-administered with compound for 30 mins followed by indomethacin administration and measured after 4 hrs (reference value: 52.5 +/- 1.4). It is filed as functional. The note with it: time 4.5 hrs.
Data set [3] relates to Mus musculus. Briefly: Antiulcer activity in indomethacin-induced Balb/c mouse model of gastric ulcer assessed as mean ulcer index at 12 mg/kg, po pre-administered with compound for 30 mins followed by indomethacin administration and measured after 4 hrs (reference value: 52.5 +/- 1.4). The data set is classed as functional. The note with it: time 4.5 hrs.
Data set [4] concerns Mus musculus. Briefly: Antiulcer activity in indomethacin-induced Balb/c mouse model of gastric ulcer assessed as inhibition of ulceration at 12 mg/kg, po pre-administered with compound for 30 mins followed by indomethacin administration and measured after 4 hrs relative to control. It is filed as functional. Conditions: time 4.5 hrs.
Data set [5] can be described thus: Toxicity in Balb/c mouse assessed as lethargy at 150 to 300 mg/kg, po administered via gavage for 25 days. The data set is classed as organism-based. The note with it: in vivo, 600 h, dose 150-300 mg/kg, time 25 day.
Data set [6] in a line: Toxicity in Balb/c mouse assessed as mortality at 150 to 300 mg/kg, po administered via gavage for 25 days. The data set is classed as organism-based. The note with it: in vivo, 600 h, dose 150-300 mg/kg, time 25 day.
In data set [7] the test system is Mus musculus. Briefly: In vivo inhibition of MMP-9 expression in indomethacin-induced Balb/c mouse model of gastric ulcer at 50 mg/kg, po pre-administered with compound for 30 mins followed by indomethacin administration and measured after 4 hrs by PI staining based immunofluorescence analysis. The note with it: time 4.5 hrs. The data set is classed as functional, organism-based.

In data set [8] the target is T1, Matrix metalloproteinase-9 (Homo sapiens, UniProt P14780). Briefly: Inhibition of human MMP-9 at 500 uM incubated for 3 hrs by SDS-PAGE based gelatin zymography analysis.
T1 sequence (P14780 whole entry): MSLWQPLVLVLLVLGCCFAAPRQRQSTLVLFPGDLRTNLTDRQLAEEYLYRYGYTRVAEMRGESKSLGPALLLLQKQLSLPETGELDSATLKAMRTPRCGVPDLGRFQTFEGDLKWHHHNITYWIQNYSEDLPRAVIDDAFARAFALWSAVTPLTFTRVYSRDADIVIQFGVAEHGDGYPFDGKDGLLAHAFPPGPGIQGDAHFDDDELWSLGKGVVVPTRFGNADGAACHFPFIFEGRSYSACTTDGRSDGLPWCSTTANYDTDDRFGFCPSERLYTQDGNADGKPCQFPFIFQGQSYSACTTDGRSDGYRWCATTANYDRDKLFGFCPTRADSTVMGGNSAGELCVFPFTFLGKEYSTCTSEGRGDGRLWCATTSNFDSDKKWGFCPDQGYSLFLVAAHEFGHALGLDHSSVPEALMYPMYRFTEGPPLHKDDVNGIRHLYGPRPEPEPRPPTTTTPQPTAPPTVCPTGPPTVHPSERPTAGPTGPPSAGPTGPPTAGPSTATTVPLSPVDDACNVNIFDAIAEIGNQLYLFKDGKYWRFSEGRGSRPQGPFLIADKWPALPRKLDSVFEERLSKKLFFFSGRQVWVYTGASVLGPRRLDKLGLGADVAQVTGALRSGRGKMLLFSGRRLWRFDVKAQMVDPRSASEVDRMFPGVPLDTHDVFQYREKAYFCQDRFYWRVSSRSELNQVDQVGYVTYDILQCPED
Data set [9] deals with 72 kDa type IV collagenase (Homo sapiens) (UniProt P08253). Briefly: Inhibition of MMP-2 (unknown origin) upto 500 uM incubated for 3 hrs by SDS-PAGE analysis.
Chain of 72 kDa type IV collagenase (Homo sapiens) (P08253 110-660 limits assumed): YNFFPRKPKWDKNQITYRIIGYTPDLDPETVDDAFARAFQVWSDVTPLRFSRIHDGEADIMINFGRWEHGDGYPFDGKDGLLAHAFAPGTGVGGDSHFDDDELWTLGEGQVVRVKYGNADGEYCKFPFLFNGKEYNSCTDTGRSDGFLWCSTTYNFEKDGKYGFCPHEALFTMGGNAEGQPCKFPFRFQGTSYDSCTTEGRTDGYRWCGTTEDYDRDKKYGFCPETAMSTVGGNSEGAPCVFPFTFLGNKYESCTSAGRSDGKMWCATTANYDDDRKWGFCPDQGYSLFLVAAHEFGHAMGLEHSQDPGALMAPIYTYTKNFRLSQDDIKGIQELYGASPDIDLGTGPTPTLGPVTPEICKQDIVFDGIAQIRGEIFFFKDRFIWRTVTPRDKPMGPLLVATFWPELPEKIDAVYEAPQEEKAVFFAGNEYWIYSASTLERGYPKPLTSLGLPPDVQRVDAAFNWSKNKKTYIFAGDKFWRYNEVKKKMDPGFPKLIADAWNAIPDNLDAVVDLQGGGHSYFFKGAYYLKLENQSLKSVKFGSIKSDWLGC
The subject of data set [10] is Mus musculus. Briefly: Antiulcer activity in indomethacin-induced Balb/c mouse model of gastric ulcer assessed as cell injury in mucosa at 50 mg/kg, po pre-administered with compound for 30 mins followed by indomethacin administration and measured after 4 hrs by H&E staining based analysis (reference value: 70+/- 6.5 %). It is filed as functional. Conditions: time 4.5 hrs.

Data set [11] concerns Mus musculus. Briefly: Antiulcer activity in indomethacin-induced Balb/c mouse model of gastric ulcer assessed as intact epithelial layer in gastric tissue at 50 mg/kg, po pre-administered with compound for 30 mins followed by indomethacin administration and measured after 4 hrs by H&E staining based analysis. Conditions: time 4.5 hrs. The data set is classed as functional, organism-based.

Data set [12] has as its system Mus musculus. Briefly: Antiulcer activity in indomethacin-induced Balb/c mouse model of gastric ulcer assessed as inflammatory cell infiltration at 50 mg/kg, po pre-administered with compound for 30 mins followed by indomethacin administration and measured after 4 hrs by H&E staining based analysis (reference value: 147 +/- 5.2%). It is filed as functional. Conditions: time 4.5 hrs.

Data set [13] is described as follows: Tmax in Sprague-Dawley rat at 250 mg/kg, po administered via gavage by HPLC analysis. The data set is classed as ADME, organism-based. Conditions: in vivo.
For data set [14], the system named is Mus musculus. Briefly: Antiulcer activity in indomethacin-induced Balb/c mouse model of gastric ulcer assessed as prevention of inflammatory cell infiltration at 50 mg/kg, po pre-administered with compound for 30 mins followed by indomethacin administration and measured after 4 hrs by H&E staining based analysis relative to control. The data set is classed as functional. Conditions: time 4.5 hrs.

The test system of data set [15] is Mus musculus. Briefly: Antioxidant activity in indomethacin-induced Balb/c mouse model of gastric ulcer assessed as lipid peroxidation by measuring TBARS activity in stomach at 50 mg/kg, po pre-administered with compound for 30 mins followed by indomethacin administration and measured after 4 hrs by TBARS assay (reference value: 1.40 +/- 0.03 nmol/mg). The data set is classed as functional. Conditions: time 4.5 hrs.

For data set [16], the system named is Mus musculus. Briefly: Antiulcer activity in indomethacin-induced Balb/c mouse model of gastric ulcer assessed as reduction in gastric tissue injury at 50 mg/kg, po pre-administered with compound for 30 mins followed by indomethacin administration and measured after 4 hrs by H&E staining based analysis. It is filed as functional, organism-based. The note with it: time 4.5 hrs.

For data set [17], the target named is T1, Matrix metalloproteinase-9. Briefly: Inhibition of human MMP-9 incubated for 3 hrs by SDS-PAGE based gelatin zymography analysis.
Data set [18] is described as follows: AUC in Sprague-Dawley rat at 250 mg/kg, po administered via gavage by HPLC analysis. It is filed as ADME, organism-based. More on the design: dose 250 mg/kg, route po. The note with it: in vivo.
A short description of data set [19]: Toxicity in Balb/c mouse assessed as abdominal distension at 150 to 300 mg/kg, po administered via gavage for 25 days. The data set is classed as organism-based. The note with it: in vivo, 600 h, dose 150-300 mg/kg, time 25 day.
Data set [20] concerns Mus musculus. Briefly: Antiulcer activity in indomethacin-induced Balb/c mouse model of gastric ulcer assessed as inhibition of gastric mucosal apoptosis at 50 mg/kg, po pre-administered with compound for 30 mins followed by indomethacin administration and measured after 4 hrs by TUNEL assay. The note with it: time 4.5 hrs. It is filed as functional, organism-based.
Data set [21] relates to Mus musculus. Briefly: In vivo inhibition of MMP-9 activity in indomethacin-induced Balb/c mouse model of gastric ulcer at 50 mg/kg, po pre-administered with compound for 30 mins followed by indomethacin administration and measured after 4 hrs by SDS-PAGE based gelatin zymography method. The data set is classed as functional, organism-based. The note with it: time 4.5 hrs.

Data set [22] in a line: Toxicity in Balb/c mouse assessed as fur loss at 150 to 300 mg/kg, po administered via gavage for 25 days. It is filed as organism-based. Conditions: in vivo, 600 h, dose 150-300 mg/kg, time 25 day.
A short description of data set [23]: Toxicity in Balb/c mouse assessed as hunching at 150 to 300 mg/kg, po administered via gavage for 25 days. The note with it: in vivo, 600 h, dose 150-300 mg/kg, time 25 day. It is filed as organism-based.
Data set [24] deals with Mus musculus. Briefly: Antiulcer activity in indomethacin-induced Balb/c mouse model of gastric ulcer assessed as reduction in mucosal injury at 50 mg/kg, po pre-administered with compound for 30 mins followed by indomethacin administration and measured after 4 hrs by H&E staining based analysis relative to control. It is filed as functional. Set-up: scale not given: the % may be the effect or the level left. The note with it: time 4.5 hrs.

The nature of data set [25]: Toxicity in Balb/c mouse assessed as effect on body weight at 150 to 300 mg/kg, po administered via gavage for 25 days. The data set is classed as organism-based. The note with it: in vivo, 600 h, dose 150-300 mg/kg, time 25 day.
Data set [26] deals with T2, Prostaglandin G/H synthase 2 (Homo sapiens, UniProt P35354).
T2 sequence (P35354 whole entry): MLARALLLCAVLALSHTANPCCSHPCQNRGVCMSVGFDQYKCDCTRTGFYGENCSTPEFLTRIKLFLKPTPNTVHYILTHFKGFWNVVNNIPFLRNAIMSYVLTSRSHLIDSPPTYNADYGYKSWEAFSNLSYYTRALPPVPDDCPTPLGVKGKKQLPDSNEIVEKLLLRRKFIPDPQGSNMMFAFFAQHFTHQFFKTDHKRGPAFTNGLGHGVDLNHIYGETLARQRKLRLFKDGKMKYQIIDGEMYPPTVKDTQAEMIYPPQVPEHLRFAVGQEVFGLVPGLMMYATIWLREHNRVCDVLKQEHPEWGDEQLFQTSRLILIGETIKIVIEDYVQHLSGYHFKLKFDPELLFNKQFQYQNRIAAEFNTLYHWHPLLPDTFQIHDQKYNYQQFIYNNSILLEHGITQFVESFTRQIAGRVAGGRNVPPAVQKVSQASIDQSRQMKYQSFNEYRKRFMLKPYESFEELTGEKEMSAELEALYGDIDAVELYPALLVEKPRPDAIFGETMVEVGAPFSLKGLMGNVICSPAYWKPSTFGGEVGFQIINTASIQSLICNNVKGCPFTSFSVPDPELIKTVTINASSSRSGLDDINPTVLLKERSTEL
Briefly: Inhibition of COX2 (unknown origin) preincubated with compound for 5 mins followed by substrate addition and measured after 5 mins by fluorescence spectrophotometer analysis.

pIC50: −log10 of the molar value. The source made the active and inactive calls. The rule behind the calls is not given here.

`COc1ccc2[nH]cc(-c3cc(-c4ccccc4)oc3-c3ccccc3)c2c1OC`: in the data set with Mus musculus [1], the inhibition in vivo at 50 mg/kg came out at 74%. For the same compound, the UI in the data set on Mus musculus [2] is given as 13.5.
The matching figures for `COc1cccc2c1c(-c1cc(-c3ccccc3)oc1-c1ccccc1)cn2C`: 56% and 23.25.
As to `COc1ccc2[nH]c([S+]([O-])Cc3ncc(C)c(OC)c3C)nc2c1` (stereo not given) [OMEPRAZOLE], the UI in the data set with Mus musculus [3] came out at 0.5. Moreover, in the data set with Mus musculus [4], the inhibition in vivo at 12 mg/kg was 100%.
On to `COc1cccc2[nH]cc(-c3cc(-c4ccccc4)oc3-c3ccccc3)c12`, for which the Activity result in data set [5] is on record as “Non-Toxic”; in data set [6], “Non-Toxic”; in the data set with Mus musculus [10] it was 12%; with Mus musculus [12], 92%; in the data set on Mus musculus [14], 100%; in the data set on Mus musculus [15] it was 0.47 nmol/mg. The Activity result in [19] is given as “Non-Toxic”; in [22], “Non-Toxic”; in [23], “Non-Toxic”; in the data set with Mus musculus [24] it was approximately 90%; in [25], “Non-Toxic”. The inhibition entry (in the data set on Mus musculus [7]; in data set [8]; in the data set on Mus musculus [21]) was “Active” in each case. For the same compound, in the data set with Mus musculus [1], the inhibition in vivo at 50 mg/kg was determined as 95%. In addition, the inhibition entry in [9] was “inactive”. In addition, the outcome in the data set on Mus musculus [11], in the data set on Mus musculus [16] and in the data set on Mus musculus [20] was Active. Moreover, the Tmax in [13] is 6 h. The pIC50 in data set [17] was approximately 4.30; in [26], less than 4.00. The area under the curve (AUC) in [18] was 1270 µg·h/mL. Further, the UI with Mus musculus [2] is reported as 2.5.
Consider `c1ccc(-c2cc(-c3c(-c4ccccc4)[nH]c4ccccc34)c(-c3ccccc3)o2)cc1`, for which the inhibition in vivo at 50 mg/kg in the data set on Mus musculus [1] is 65%. Also, the UI in the data set with Mus musculus [2] is 18.25.
The matching figures for `Oc1ccc2[nH]cc(-c3cc(-c4ccccc4)oc3-c3ccccc3)c2c1`: 78% and 11.5.
In the case of `c1ccc(-c2cc(-c3c[nH]c4ccccc34)c(-c3ccccc3)o2)cc1`, in the data set on Mus musculus [1], the inhibition in vivo at 50 mg/kg is 62%. For the same compound, in the data set on Mus musculus [2], the UI came out at 20.2.
`COc1ccc2[nH]cc(-c3cc(-c4ccccc4)oc3-c3ccccc3)c2c1`: the inhibition in vivo at 50 mg/kg in the data set on Mus musculus [1] was determined as 83%. Also, in the data set on Mus musculus [2], the UI stood at 9.
The matching figures for `Oc1ccccc1-c1[nH]c2ccccc2c1-c1cc(-c2ccccc2)oc1-c1ccccc1`: 72% and 14.5.

A word on the inhibition in vivo: it is how much of the control response was suppressed. Usually Tmax stands for the time at which the peak concentration occurs. The term pIC50 denotes the IC50 on a negative log10 scale, so that one unit is a factor of ten. One may read the AUC as concentration integrated over time.

The record behind these values is ChEMBL document CHEMBL5331105, “Newly Synthesized 3-Indolyl Furanoid Inhibits Matrix Metalloproteinase-9 Activity and Prevents Nonsteroidal Anti-inflammatory Drug-Induced Gastric Ulceration” (J Med Chem, 2023).
